pIC50: −log10 of the molar value.
Tests used:
female Cr1:CD1(ICR) mice = assay: Tail immersion assay in mice (analgesic potential, in combination with anandamide); conditions: for analgesic effects at the rate tested (conclusion) / % of the treated animals exhibiting the maximum measured response time of 10 sec: 10 mg/kg i.p. plus anandamide 50 mg/kg; for % MPE (percent of the maximum possible effect (test-baseline)/(10-baseline)) / Test Time / Baseline Time: mean; for Baseline Time: prior to administration of compounds, tail in water 52+/−1° C.
Experimental: Test substances were injected once by intraperitoneal (i.p.) route to female Cr1:CD1(ICR) mice. The tail immersion assay was conducted prior to administration of compounds to establish baseline values and again after administration of compounds.
Analgesia was evaluated in female mice by immersing approximately 3.5 cm of each tail into water that was maintained at 52+/−1° C. for a maximum of 10 seconds (sec). The length of time until the animal removed its tail from the water or made a significant tail movement was measured. If the response time was less than 5 sec, a second trial was conducted.
Based on the results of the preliminary study, the time interval between administration of the test substances and anandamide was established as 40 minutes. In addition, the time interval between administration of anandamide and conducting the tail immersion assay was established to be 40 minutes.
The formulations were made on the day of dosing and administered once by intraperitoneal route.

[1] = cited from earlier work
[2] = target: T1, recombinant human FAAH (MBP-ΔTM-FAAH) (Homo sapiens, UniProt O00519); assay: FAAH assay, fluorogenic substrate D-AMC; format: biochemical; conditions: D-AMC 5 μM, pH 8.0, 37° C.
T1 construct: The region of the gene corresponding to amino acids 34 to 579 was cloned into pMAL-c4x; made in house; host or cells: E. coli T7 Express
T1 sequence (O00519 34-579): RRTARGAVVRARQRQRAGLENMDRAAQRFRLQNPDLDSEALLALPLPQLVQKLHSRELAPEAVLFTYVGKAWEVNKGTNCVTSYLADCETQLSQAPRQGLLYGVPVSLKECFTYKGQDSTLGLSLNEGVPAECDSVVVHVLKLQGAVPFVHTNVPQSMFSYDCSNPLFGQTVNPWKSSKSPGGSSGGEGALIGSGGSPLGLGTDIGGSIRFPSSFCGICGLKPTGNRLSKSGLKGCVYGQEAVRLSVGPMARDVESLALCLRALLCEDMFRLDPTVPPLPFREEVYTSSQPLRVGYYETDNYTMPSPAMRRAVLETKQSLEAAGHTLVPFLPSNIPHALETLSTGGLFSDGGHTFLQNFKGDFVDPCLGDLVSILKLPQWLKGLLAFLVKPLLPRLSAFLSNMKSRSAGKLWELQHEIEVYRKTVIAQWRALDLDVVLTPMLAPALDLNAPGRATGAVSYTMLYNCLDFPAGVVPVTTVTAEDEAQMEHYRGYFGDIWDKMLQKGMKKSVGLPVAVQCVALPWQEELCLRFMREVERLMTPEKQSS
Experimental: E. coli T7 Express cells, containing the FAAH constructs, were used for expression of protein by induction with IPTG (isopropyl-β-D-thiogalactopyranoside) (100 μM) overnight at room temperature in Lennox Broth with 0.2% glucose. After harvest, the cells were resuspended in 20 mM Hepes buffer (pH 7.4) containing 200 mM NaCl, 2 mM DTT (dithiothreitol). The cell suspension was lysed by sonication, and the cell debris removed by centrifugation. […] The enzyme was eluted using 15 mM maltose as per manufacturer's (New England BioLabs, Inc.) instruction. Fractions containing FAAH were concentrated and further purified using Sephacryl™ 5100 (HIPrep™ 26/60, GE Healthcare, Inc.) chromatography. […]
FAAH assay—Enzyme activity was measured using the fluorogenic substrate, decanoyl 7-amino-4-methylcoumarin (D-AMC) as described by Kage, K. L. et al. J. of Neuroscience Methods 2007, 161, 47-54. […] Reactions were carried out in black 96-well microplates (Costar, Inc) using a SpectraMax Gemini™ (Molecular Devices, Inc.) fluorescence plate reader in a reaction volume of 200 μL per well at 37° C. Reaction rates were monitored at an emission wavelength of 430 nm using an excitation wavelength of 351 nm over 30 to 40 minutes. Experimental compounds were initially evaluated at a single concentration of 2 μM.

[3] = 10 mg/kg i.p., anandamide 50 mg/kg i.p. 40 minutes later, assay 40 minutes after anandamide
[4] = 10 mg/kg i.p., anandamide 50 mg/kg i.p. 40 minutes later, assay 40 minutes after anandamide, maximum 10 sec
[5] = anandamide 50 mg/kg i.p. alone (negative control), assay 40 minutes after

Compound	analgesic effects at the rate tested (conclusion) (female Cr1:CD1(ICR) mice)	% MPE (percent of the maximum possible effect (test-baseline)/(10-baseline)) (female Cr1:CD1(ICR) mice; [3])	Test Time (female Cr1:CD1(ICR) mice; [4])	Baseline Time (female Cr1:CD1(ICR) mice; maximum 10 sec)	% of the treated animals exhibiting the maximum measured response time of 10 sec (female Cr1:CD1(ICR) mice)	causing hypothermia or analgesia ([1]; anandamide alone)	% MPE (percent of the maximum possible effect (test-baseline)/(10-baseline)) (female Cr1:CD1(ICR) mice; [5])	Test Time (female Cr1:CD1(ICR) mice; [5])	pIC50 [2]	analgesic effect ([1]; anandamide administered along with OL-135)
O=C(Nc1ccccc1)N1CCC(c2nc(C3=NOC(c4ccccc4)C3)cs2)CC1 (stereo not drawn) [Compound 1, 4-[4-(4,5-dihydro-5-phenyl-3-isoxazolyl)-2-thiazolyl]-N-phenyl-1-piperidinecarboxamide]	no analgesic effects	20.2%	5.0 s	3.5 s	–	–	–	–	–	–
O=C(Oc1ccccc1)N1CCC(c2nc(C3=NOC(c4ccccc4)C3)cs2)CC1 (stereo not drawn) [Compound 11, phenyl 4-[4-(4,5-dihydro-5-phenyl-3-isoxazolyl)-2-thiazolyl]-1-piperidinecarboxylate]	analgesic effects	100.0%	10.0 s	5.8 s	100%	–	–	–	–	–
CCCCC/C=C\C/C=C\C/C=C\C/C=C\CCCC(=O)NCCO [Anandamide, reference compound]	–	–	–	6.9 s	–	largely ineffective	20.3%	6.7 s	–	–
O=C(Oc1ccccc1)N1CCC(c2nc(C3=NOC4(CCCc5ccccc54)C3)cs2)CC1 (stereo not drawn) [Compound 52]	–	–	–	–	–	–	–	–	7.54	–
O=C(CCCCCCc1ccccc1)c1ncc(-c2ccccn2)o1 [OL-135, reference compound]	–	61.5%	7.6 s	4.1 s	–	–	–	–	–	significantly elevated
O=C(Nc1nccs1)N1CCC(c2nc(C3=NOC(c4ccccc4)C3)cs2)CC1 (stereo not drawn) [Compound 49]	no analgesic effects	−4.0%	6.4 s	7.5 s	–	–	–	–	–	–
O=C(Oc1ccccc1Cl)N1CCC(c2nc(C3=NOC(c4ccccc4)C3)cs2)CC1 (stereo not drawn) [Compound 61]	analgesic effects	86.9%	9.4 s	6.0 s	90%	–	–	–	–	–
